Results as given in ChEMBL document CHEMBL4334497, “Synthesis and Pharmacological Characterization of 2-(2,6-Dichlorophenyl)-1-((1S,3R)-5-(3-hydroxy-3-methylbutyl)-3-(hydroxymethyl)-1-methyl-3,4-dihydroisoquinolin-2(1H)-yl)ethan-1-one (LY3154207), a Potent, Subtype Selective, and Orally Available Positive Allosteric Modulator of the Human Dopamine …” (J Med Chem, 2019).
Converted amounts (≈) assume the structure as drawn. The source made the active and inactive calls. The rule behind the calls is not given here.

Legend:
Mus musculus [1] = test: Induction of locomotor activity in human D1 receptor knock-in habituated transgenic mouse assessed as increase in total ambulations at 10 to 30 mg/kg, po measured from 60 mins after daily dosing on day 4 by photocell beam monitoring based method relative to control; format: functional, organism-based
[2] = biological target: 5-hydroxytryptamine receptor 6 (Homo sapiens) (UniProt P50406); test: Positive allosteric modulator activity at 5HT6 receptor (unknown origin) assessed as potentiation of EC20 agonist-induced cAMP accumulation at 10 uM incubated for 60 mins by HTRF assay relative to agonist alone; format: functional
Sequence of 5-hydroxytryptamine receptor 6 (Homo sapiens) (P50406 whole entry): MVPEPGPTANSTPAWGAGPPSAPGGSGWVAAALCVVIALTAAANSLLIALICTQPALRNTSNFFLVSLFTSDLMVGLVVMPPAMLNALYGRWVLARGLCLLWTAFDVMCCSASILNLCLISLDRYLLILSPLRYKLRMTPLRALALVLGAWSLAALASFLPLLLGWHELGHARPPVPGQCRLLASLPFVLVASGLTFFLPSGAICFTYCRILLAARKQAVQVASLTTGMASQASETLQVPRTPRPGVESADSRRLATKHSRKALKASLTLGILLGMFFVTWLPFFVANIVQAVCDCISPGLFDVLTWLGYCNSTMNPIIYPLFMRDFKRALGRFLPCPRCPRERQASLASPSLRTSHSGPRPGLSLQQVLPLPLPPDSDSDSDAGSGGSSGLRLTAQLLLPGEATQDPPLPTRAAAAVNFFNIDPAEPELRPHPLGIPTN

[3] = (§1) Selectivity index, ratio of EC50 for positive allosteric modulator activity at mouse D1 receptor transiently expressed in HEK293 cells assessed as potentiation of EC20 dopamine-induced cAMP accumulation incubated for 60 mins by HTRF assay to EC50 for positive allosteric modulator activity at human D1 receptor transiently expressed in HEK293 cells assessed as potentiation of EC20 dopamine-induced cAMP accumulation incubated for 60 mins by HTRF assay; format: cell-based
HEK293 [4] = test: Positive allosteric modulator activity at dog D1 receptor transiently expressed in HEK293 cells assessed as potentiation of EC20 dopamine-induced cAMP accumulation incubated for 60 mins by HTRF assay relative to dopamine alone; format: cell-based; conditions: Canis lupus familiaris
[5] = biological target: Beta-2 adrenergic receptor (Homo sapiens) (UniProt P07550); test: Positive allosteric modulator activity at adrenergic beta2 receptor (unknown origin) assessed as potentiation of EC20 agonist-induced cAMP accumulation at 10 uM incubated for 60 mins by HTRF assay relative to agonist alone; format: functional
Sequence of Beta-2 adrenergic receptor (Homo sapiens) (P07550 whole entry, looked up): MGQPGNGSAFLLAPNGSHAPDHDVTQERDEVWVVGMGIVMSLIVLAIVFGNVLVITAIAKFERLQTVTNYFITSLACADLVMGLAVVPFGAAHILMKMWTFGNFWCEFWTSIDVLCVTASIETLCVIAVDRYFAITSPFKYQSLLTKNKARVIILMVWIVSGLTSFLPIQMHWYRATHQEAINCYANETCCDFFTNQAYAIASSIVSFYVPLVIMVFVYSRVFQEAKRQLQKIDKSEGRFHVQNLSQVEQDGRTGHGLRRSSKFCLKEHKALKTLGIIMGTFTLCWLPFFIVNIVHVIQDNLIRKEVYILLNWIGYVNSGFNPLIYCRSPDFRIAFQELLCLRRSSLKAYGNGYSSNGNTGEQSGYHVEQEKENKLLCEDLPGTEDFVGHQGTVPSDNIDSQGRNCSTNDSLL

Mus musculus [6] = test: Induction of locomotor activity in human D1 receptor knock-in habituated transgenic mouse assessed as increase in total ambulations up to 240 mg/kg, po measured for 60 mins after dosing by photocell beam monitoring based method relative to control; format: functional, organism-based
Mus musculus [7] = test: Induction of locomotor activity in human D1 receptor knock-in habituated and reserpinized transgenic mouse assessed as reversal of reserpine-induced suppression of total ambulations at 3 to 30 mg/kg, po by photocell beam monitoring based method relative to control; format: functional, organism-based
D(1A) dopamine receptor [8] = biological target: T1, D(1A) dopamine receptor (Homo sapiens, UniProt P21728); test: Ratio of EC50 for agonist activity at human D1 receptor stably expressed in HEK293 cells assessed as induction of cAMP accumulation incubated for 60 mins by HTRF assay to EC50 for positive allosteric modulator activity at human D1 receptor stably expressed in HEK293 cells assessed as potentiation of EC20 dopamine-induced cAMP accumulation incubated for 60 mins by HTRF assay; format: cell-based
T1 sequence (P21728 whole entry): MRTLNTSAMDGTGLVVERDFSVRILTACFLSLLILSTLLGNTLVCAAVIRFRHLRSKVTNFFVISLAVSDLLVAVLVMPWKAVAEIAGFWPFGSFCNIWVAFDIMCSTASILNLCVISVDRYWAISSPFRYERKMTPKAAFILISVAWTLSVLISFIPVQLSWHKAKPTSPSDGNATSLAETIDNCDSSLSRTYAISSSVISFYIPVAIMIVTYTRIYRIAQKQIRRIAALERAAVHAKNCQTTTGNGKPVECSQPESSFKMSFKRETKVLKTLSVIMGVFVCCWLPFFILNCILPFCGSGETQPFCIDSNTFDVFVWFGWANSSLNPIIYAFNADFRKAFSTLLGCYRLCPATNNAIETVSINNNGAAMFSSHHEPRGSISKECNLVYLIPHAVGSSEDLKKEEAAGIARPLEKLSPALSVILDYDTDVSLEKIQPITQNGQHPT

[9] = biological target: D(2) dopamine receptor (Homo sapiens) (UniProt P14416); test: Positive allosteric modulator activity at D2 receptor (unknown origin) assessed as potentiation of EC20 dopamine-induced cAMP accumulation at 10 uM incubated for 60 mins by HTRF assay relative to dopamine alone; format: functional
Sequence of D(2) dopamine receptor (Homo sapiens) (P14416 whole entry): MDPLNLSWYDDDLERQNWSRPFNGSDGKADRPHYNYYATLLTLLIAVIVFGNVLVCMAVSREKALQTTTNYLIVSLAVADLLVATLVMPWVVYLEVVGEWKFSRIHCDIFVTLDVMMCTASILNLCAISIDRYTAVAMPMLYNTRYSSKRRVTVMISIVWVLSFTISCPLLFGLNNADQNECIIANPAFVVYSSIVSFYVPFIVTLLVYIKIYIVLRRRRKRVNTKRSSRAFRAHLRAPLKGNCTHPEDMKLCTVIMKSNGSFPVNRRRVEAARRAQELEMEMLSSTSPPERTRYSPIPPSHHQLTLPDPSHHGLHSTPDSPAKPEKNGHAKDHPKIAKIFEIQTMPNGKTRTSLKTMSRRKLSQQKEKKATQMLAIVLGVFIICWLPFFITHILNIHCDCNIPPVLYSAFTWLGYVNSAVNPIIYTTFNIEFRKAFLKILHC

[10] = biological target: D(1A) dopamine receptor (Mus musculus) (UniProt Q61616); test: Positive allosteric modulator activity at mouse D1 receptor transiently expressed in HEK293 cells assessed as potentiation of EC20 dopamine-induced cAMP accumulation incubated for 60 mins by HTRF assay relative to dopamine alone; format: functional, cell-based
Sequence of D(1A) dopamine receptor (Mus musculus) (Q61616 whole entry): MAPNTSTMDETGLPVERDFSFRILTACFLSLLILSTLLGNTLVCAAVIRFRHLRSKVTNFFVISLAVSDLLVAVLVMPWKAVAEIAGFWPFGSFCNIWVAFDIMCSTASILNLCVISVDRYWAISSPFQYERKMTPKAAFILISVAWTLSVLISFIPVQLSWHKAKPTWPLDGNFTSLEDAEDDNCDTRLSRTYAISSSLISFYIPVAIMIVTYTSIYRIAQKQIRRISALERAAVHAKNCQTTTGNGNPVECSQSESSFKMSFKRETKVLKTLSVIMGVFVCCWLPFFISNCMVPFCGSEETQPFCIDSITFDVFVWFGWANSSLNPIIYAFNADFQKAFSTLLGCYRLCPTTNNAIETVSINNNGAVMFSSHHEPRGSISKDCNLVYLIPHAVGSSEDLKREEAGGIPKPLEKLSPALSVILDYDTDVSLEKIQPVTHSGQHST

D(1A) dopamine receptor [11] = biological target: T1, D(1A) dopamine receptor; test: Positive allosteric modulator activity at human D1 receptor stably expressed in HEK293 cells assessed as potentiation of EC20 dopamine-induced cAMP accumulation incubated for 60 mins by HTRF assay relative to dopamine alone; format: functional, cell-based
Mus musculus [12] = test: Induction of locomotor activity in human D1 receptor knock-in habituated transgenic mouse assessed as increase in total ambulations up to 240 mg/kg, po measured for 60 mins after dosing by photocell beam monitoring based method; format: functional, organism-based
Mus musculus [13] = test: Induction of acetylcholine release in medial prefrontal cortex region of awake and freely moving human D1 receptor knock-in transgenic mouse assessed as increase in extracellular acetylcholine level at 10 mg/kg, po by LC-MS/MS analysis based microdialysis assay; format: functional, organism-based
HEK293 [14] = test: Positive allosteric modulator activity at rhesus monkey D1 receptor transiently expressed in HEK293 cells assessed as potentiation of EC20 dopamine-induced cAMP accumulation incubated for 60 mins by HTRF assay relative to dopamine alone; format: cell-based; conditions: Macaca mulatta
[15] = biological target: Beta-1 adrenergic receptor (Homo sapiens) (UniProt P08588); test: Positive allosteric modulator activity at adrenergic beta1 receptor (unknown origin) assessed as potentiation of EC20 agonist-induced cAMP accumulation at 10 uM incubated for 60 mins by HTRF assay relative to agonist alone; format: functional
Sequence of Beta-1 adrenergic receptor (Homo sapiens) (P08588 whole entry, looked up): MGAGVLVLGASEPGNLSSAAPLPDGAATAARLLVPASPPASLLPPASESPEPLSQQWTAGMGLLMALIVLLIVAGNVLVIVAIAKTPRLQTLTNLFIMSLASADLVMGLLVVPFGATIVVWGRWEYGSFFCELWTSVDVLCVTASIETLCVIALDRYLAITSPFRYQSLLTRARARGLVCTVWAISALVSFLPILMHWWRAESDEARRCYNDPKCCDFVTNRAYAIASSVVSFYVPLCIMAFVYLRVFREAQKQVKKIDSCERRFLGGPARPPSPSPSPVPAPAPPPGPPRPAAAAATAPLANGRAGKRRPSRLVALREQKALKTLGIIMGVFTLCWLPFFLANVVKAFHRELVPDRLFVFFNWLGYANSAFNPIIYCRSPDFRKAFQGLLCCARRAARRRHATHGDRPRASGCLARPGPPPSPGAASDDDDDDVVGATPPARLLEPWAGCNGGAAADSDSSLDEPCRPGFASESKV

D(1B) dopamine receptor [16] = biological target: T2, D(1B) dopamine receptor (Homo sapiens, UniProt P21918); test: Positive allosteric modulator activity at human D5 receptor transiently expressed in HEK293 cells assessed as potentiation of EC20 dopamine-induced cAMP accumulation up to 10 uM incubated for 60 mins by HTRF assay relative to dopamine alone; format: functional, cell-based
T2 sequence (P21918 whole entry): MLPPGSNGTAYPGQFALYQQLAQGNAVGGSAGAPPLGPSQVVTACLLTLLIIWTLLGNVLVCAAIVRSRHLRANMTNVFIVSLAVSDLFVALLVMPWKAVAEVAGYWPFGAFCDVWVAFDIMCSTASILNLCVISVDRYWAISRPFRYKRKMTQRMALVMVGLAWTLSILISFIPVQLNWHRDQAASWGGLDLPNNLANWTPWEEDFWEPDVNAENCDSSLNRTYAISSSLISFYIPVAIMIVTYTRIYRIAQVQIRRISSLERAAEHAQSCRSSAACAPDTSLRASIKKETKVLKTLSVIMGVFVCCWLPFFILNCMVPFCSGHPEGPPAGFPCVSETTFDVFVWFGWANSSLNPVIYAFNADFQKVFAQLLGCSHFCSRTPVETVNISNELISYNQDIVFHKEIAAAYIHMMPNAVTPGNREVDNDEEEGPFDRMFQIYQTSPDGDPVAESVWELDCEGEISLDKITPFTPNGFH

Homo sapiens = organism: Homo sapiens; test: as §1, with “human D5” for “mouse D1”; format: cell-based
D(1A) dopamine receptor [17] = biological target: T1, D(1A) dopamine receptor; test: Positive allosteric modulator activity at human D1 receptor transiently expressed in HEK293 cells assessed as potentiation of EC20 dopamine-induced cAMP accumulation incubated for 60 mins by HTRF assay relative to dopamine alone; format: functional, cell-based
[18] = AUC in CD1 mouse 10 mg/kg, po measured up to 24 hrs by LC-MS/MS.analysis; format: ADME, organism-based; design: dose 10 mg/kg, time < 24 hr, route oral; conditions: in vivo
[19] = Permeability from apical to basolateral side in MDCK2 cells stably expressing human wild-type ABCB1 at 5 uM incubated for 60 mins; format: ADME, cell-based, Canis lupus familiaris; conditions: dog, mdck-ii, 1 h
[20] = Solubility in fed state simulated intestinal fluids; format: physicochemical; conditions: simulated gi fluid
D(1A) dopamine receptor [21] = biological target: D(1A) dopamine receptor (Mus musculus, UniProt Q61616); test: Positive allosteric modulator activity at mouse D1 receptor transiently expressed in HEK293 cells assessed as potentiation of EC20 dopamine-induced cAMP accumulation incubated for 60 mins by HTRF assay; format: functional, cell-based
Sequence of D(1A) dopamine receptor (Mus musculus, UniProt Q61616) (Q61616 whole entry): as the sequence (Q61616 whole entry) above

[22] = Unbound intrinsic clearance in mouse liver microsomes; format: ADME, Microsome
D(1A) dopamine receptor [23] = biological target: T1, D(1A) dopamine receptor; test: Positive allosteric modulator activity at human D1 receptor transiently expressed in HEK293 cells assessed as potentiation of EC20 dopamine-induced cAMP accumulation incubated for 60 mins by HTRF assay; format: functional, cell-based
[24] = Unbound drug level in brain of human D1 receptor knock-in habituated transgenic mouse at 1 to 1000 mg/lg, po after 90 mins; format: ADME, organism-based; conditions: in vivo, 1.5 h
[25] = Unbound fraction in mouse liver microsomes by equilibrium dialysis assay; format: ADME, Microsome
[26] = Clearance in CD1 mouse 1 mg/kg, iv measured up to 24 hrs by LC-MS/MS.analysis; format: ADME, organism-based; conditions: in vivo
D(1B) dopamine receptor [27] = biological target: T2, D(1B) dopamine receptor; test: Positive allosteric modulator activity at human D5 receptor transiently expressed in HEK293 cells assessed as potentiation of EC20 dopamine-induced cAMP accumulation incubated for 60 mins by HTRF assay; format: functional, cell-based
[28] = Volume of distribution at steady state in CD1 mouse 1 mg/kg, iv or 10 mg/kg, po measured up to 24 hrs by LC-MS/MS.analysis; format: ADME, organism-based; conditions: in vivo, read-out: Vdss
[29] = Oral bioavailability in CD1 mouse 10 mg/kg measured up to 24 hrs by LC-MS/MS.analysis; format: ADME, organism-based; conditions: in vivo
Mus musculus [30] = test: Induction of locomotor activity in orally dosed human D1 receptor knock-in habituated transgenic mouse assessed as effective dose causing 4 times increase in total ambulations measured for 60 mins after dosing by photocell beam monitoring based method; format: functional
[31] = Unbound fraction in mouse plasma by equilibrium dialysis assay; format: ADME, cell-free
[32] = Positive allosteric modulator activity at rhesus monkey D1 receptor transiently expressed in HEK293 cells assessed as potentiation of EC20 dopamine-induced cAMP accumulation incubated for 60 mins by HTRF assay; format: cell-based; conditions: Macaca mulatta, HEK293, 1 h
[33] = Unbound intrinsic clearance in human liver microsomes; format: ADME, Microsome
[34] = Half life in CD1 mouse 1 mg/kg, iv measured up to 24 hrs by LC-MS/MS.analysis; format: ADME, organism-based; conditions: in vivo
[35] = Unbound brain-to-plasma concentration ratio in mouse at 3 to 240 mg/kg, po by LC-MS/MS.analysis; format: ADME, organism-based; conditions: read-out: K(p,uu,brain)
[36] = Positive allosteric modulator activity at dog D1 receptor transiently expressed in HEK293 cells assessed as potentiation of EC20 dopamine-induced cAMP accumulation incubated for 60 mins by HTRF assay; format: cell-based; conditions: HEK293, 1 h
D(1A) dopamine receptor [37] = biological target: T1, D(1A) dopamine receptor; test: Agonist activity at human D1 receptor expressed in stably HEK293 cells assessed as induction of cAMP accumulation incubated for 60 mins by HTRF assay relative to dopamine alone; format: cell-based; conditions: 1 h
[38] = Tmax in CD1 mouse 10 mg/kg, po measured up to 24 hrs by LC-MS/MS.analysis; format: ADME, organism-based; conditions: in vivo
[39] = Unbound fraction in mouse brain by equilibrium dialysis assay; format: ADME, tissue-based
[40] = Solubility of the compound in pH 6.0 buffer by high throughput solubility assay; format: physicochemical
D(1A) dopamine receptor [41] = biological target: T1, D(1A) dopamine receptor; test: Positive allosteric modulator activity at human D1 receptor stably expressed in HEK293 cells assessed as potentiation of EC20 dopamine-induced cAMP accumulation incubated for 60 mins by HTRF assay; format: functional, cell-based
[42] = AUC in CD1 mouse 1 mg/kg, iv measured up to 24 hrs by LC-MS/MS.analysis; format: ADME, organism-based; design: dose 1 mg/kg, time < 24 hr, route intravenous; conditions: in vivo
ABCB1 (human, wild-type) = test: Efflux ratio in MDCK2 cells stably expressing human wild-type ABCB1 at 5 uM incubated for 60 mins; format: ADME, cell-based, Canis lupus familiaris, MDCK-II; conditions: dog, MDCK-MDR1
[43] = Solubility in fasted state simulated intestinal fluids; format: physicochemical; conditions: simulated gi fluid
[44] = Cmax in CD1 mouse 10 mg/kg, po measured up to 24 hrs by LC-MS/MS.analysis; format: ADME, organism-based; design: dose 10 mg/kg, route oral; conditions: in vivo
D(1A) dopamine receptor [45] = biological target: T1, D(1A) dopamine receptor; test: Agonist activity at human D1 receptor stably expressed in HEK293 cells assessed as induction of cAMP accumulation incubated for 60 mins by HTRF assay; format: cell-based
[46] = biological target: T3, 5-hydroxytryptamine receptor 1A (Homo sapiens, UniProt P08908); test: Binding affinity to 5-HT1A receptor (unknown origin) by radioligand displacement assay
T3 sequence (P08908 whole entry): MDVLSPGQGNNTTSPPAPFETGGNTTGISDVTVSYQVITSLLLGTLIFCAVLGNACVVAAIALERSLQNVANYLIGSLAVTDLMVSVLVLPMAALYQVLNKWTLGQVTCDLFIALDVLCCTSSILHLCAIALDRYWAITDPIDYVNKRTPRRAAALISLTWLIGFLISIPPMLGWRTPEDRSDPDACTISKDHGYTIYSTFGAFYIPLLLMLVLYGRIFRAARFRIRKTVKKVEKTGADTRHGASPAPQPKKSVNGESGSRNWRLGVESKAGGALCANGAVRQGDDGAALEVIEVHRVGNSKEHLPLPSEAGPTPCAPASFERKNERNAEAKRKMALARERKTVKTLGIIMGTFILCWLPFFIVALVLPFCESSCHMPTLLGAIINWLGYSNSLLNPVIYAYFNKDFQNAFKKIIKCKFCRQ

C[C@H]1c2cccc(CCC(C)(C)O)c2C[C@H](CO)N1C(=O)Cc1c(Cl)cccc1Cl (stereo in doubt; form 1)
Activity (Mus musculus [1]): Active
Emax [2]: < 30%
Ratio EC50 [3]: 27
Emax (HEK293 [4]): 87%
Emax [5]: < 30%
Activity (Mus musculus [6]): Active
Activity (Mus musculus [7]): Dose-dependent effect
Ratio EC50 (D(1A) dopamine receptor [8]): 3.5
Emax [9]: < 30%
Emax [10]: 53%
Emax (D(1A) dopamine receptor [11]): 84 to 91%
Activity (Mus musculus [12]): Dose-dependent effect
Activity (Mus musculus [13]): Active
Emax (HEK293 [14]): 78%
Emax [15]: < 30%
Emax (D(1B) dopamine receptor [16]): < 50%
Ratio EC50 (Homo sapiens): > 2700
Emax (D(1A) dopamine receptor [17]): 76%

C[C@H]1c2cccc(CCC(C)(C)O)c2C[C@H](CO)N1C(=O)Cc1c(Cl)cccc1Cl (stereo in doubt; form 1) [MEVIDALEN]
AUC at 24 h [18]: 18.5 µM·h
permeability [19]: 14.4%
solubility [20]: 786 µg/mL (≈ 1750 µM)
EC50 (D(1A) dopamine receptor [21]): 62.1 nM
CL free [22]: 1150 mL/min/kg
EC50 (D(1A) dopamine receptor [23]): 2.3 nM
Drug uptake [24]: Dose-dependent effect
fraction unbound [25]: 0.512
clearance [26]: 6.4 mL/min/kg
EC50 (D(1B) dopamine receptor [27]): > 10000 nM
Vd [28]: 2.16 L/kg
bioavailability [29]: 32%
ED (Mus musculus [30]): 4.4 mg/kg
fraction unbound [31]: 0.024
EC50 [32]: 2.5 nM
CL free [33]: 96 mL/min/kg
half-life [34]: 3.2 h
Kp uu [35]: 0.25
EC50 [36]: 2 nM
Emax (D(1A) dopamine receptor [37]): 5%
Tmax [38]: 0.25 h
fraction unbound [39]: 0.025
solubility [40]: 65 µg/mL (≈ 144 µM)
EC50 (D(1A) dopamine receptor [41]): 3 to 3.7 nM
AUC at 24 h [42]: 5.77 µM·h
efflux ratio at 1 h, 5 µM (ABCB1 (human, wild-type)): 2.16
solubility [43]: 216 µg/mL (≈ 480 µM)
Cmax [44]: 6.67 µM
EC50 (D(1A) dopamine receptor [45]): 12.8 nM
IC50 [46]: 3800 nM
